The results in this text go back to patent publication EP0462585B1, “Herbicidal composition” (ISHIHARA SANGYO KAISHA, LTD., priority 1990, dated 1991).

Structures can show the parent of a compound that is named as a salt. Where two headings read alike, the source gives them in different places.

What all share (format): in vivo
The subject of assay [1] is Solidago altissima. The experiment in a line: Test Example 1 foliage treatment test, fresh weight of foliage. The following applies: foliar, 600 h, read-out: Growth Inhibition Rate (%). From the text: Upland soil was placed in 1/5000-are (are (a) = 100 m²) wagner pots and planted with hills of Solidago altissima collected in the fields, and the hills were thereafter grown in a greenhouse. When the plant height reached 20 to 30 cm, a predetermined amount of each herbicidal composition which had been diluted with 15 ℓ, per are, of water and further admixed with 0.05 % (v/v) of a spreader (Shin Rino®: manufactured by Nihon Nohyaku Co., Ltd.) was foliarly applied on the plants using a small spray gun. 25 days after the foliage treatment application, the fresh weight of foliage was measured. The growth inhibition rate (%), which is listed in Table 1, was calculated according to the following equation: Growth Inhibition Rate (%) = (1 -(Fresh Weight of Foliage in Treated Plot)/(Fresh Weight of Foliage in Untreated Plot)) x 100 [formula]

The subject of assay [2] is Digitaria sanguinalis. The experiment in a line: Test Example 2 foliage treatment test, fresh weight of aerial part; Colby expected value. As to conditions: foliar, 480 h, read-out: Growth Inhibition Rate (%) Found. The source says: However, there may be a case that when two kinds of active ingredients are applied in combination, the resulting herbicidal activity is higher than one obtained by simply summing up the activity of each of the two active ingredients (i.e., an expected activity). In such a case, it is said that a synergistic action is found. The expected activity which is brought by a specific combination of two kinds of herbicides can be calculated by the following equation as described, for example, in S.R. Colby, Weeds, "Calculating Synergistic and Antagonistic Responses of Herbicide Combinations", Vol. 15, pp. 20-22 (1967). E = α + β -(α x β)/(100) [formula] In the above equation, α represents a growth inhibition rate (%) when treated with a (g/are) of herbicide A; β represents a growth inhibition rate (%) when treated with b (g/are) of herbicide B; and E represents an expected growth inhibition rate (%) when treated with a (g/are) of herbicide A and b (g/are) of herbicide B.
Upland soil was placed in 1/10000-are pots and sown with Digitaria sanguinalis. When the plants reached the four-leaf stage, a predetermined amount of each herbicidal composition which had been diluted with 15 ℓ, per are, of water and further admixed with 0.2 % (v/v) of a spreader (Shin Rino®) was foliarly applied on the plants using a small spray gun. 20 days after the foliage treatment application, the fresh weight of the aerial part of the plant was measured. The growth inhibition rate (%) calculated by the equation given in Test Example 1 (found value) and the growth inhibition rate (%) calculated by the above-cited Colby equation (calculated value) are listed in Table 2.

The test system of assay [3] is weeds such as Solidago altissima, Agropyron smithii and Digitaria sanguinalis. The experiment in a line: Test Example 3 field foliage treatment test, visual rating of herbicidal effect. As to conditions: visual observation 30 days after foliage treatment. The source says: In a field where weeds such as Solidago altissima, Agropyron smithii and Digitaria sanguinalis had been growing mixedly, foliage treatment application of a predetermined amount of each herbicidal composition which had been diluted with 15 ℓ, per are, of water and further admixed with 0.05 % (v/v) of a spreader (Shin Rino®) was done using a small spray gun when the average plant height of these weeds reached 20 to 40 cm. 30 days after the foliage treatment application, the herbicidal effect of the herbicidal composition was examined through visual observation according to the following evaluation criteria.

One may read the inhibition as the percentage by which the read-out fell short of the control. Take `CP(=O)(O)CCC(N)C(=O)O` (racemic) [Ammonium salt of D,L-isomer of Compound B, D,L-homoalanin-4-yl(methyl)phosphinic acid]: in assay [1], the inhibition at 250 g/ha amounted to 55%, the inhibition at 500 g/ha was found to be 72% and the inhibition at 1000 g/ha came to 84%. Also, in assay [2], the inhibition at 30 g/ha was 0.9%, the inhibition at 50 g/ha was found to be 12.8%, the inhibition at 100 g/ha worked out at 35.8% and the inhibition at 200 g/ha turned out to be 52.3%. Also, in assay [2], the inhibition at 300 g/ha worked out at 85%, the inhibition at 400 g/ha came out at 90% and the inhibition at 1000 g/ha is 100%. In addition, in assay [3] (5 g/a active ingredient), the Rating is listed as 5 (50 to 59). In addition, the Rating in assay [3] (10 g/a active ingredient) is 7 (70 to 79).

`CP(=O)(O)CC[C@H](N)C(=O)O` [Ammonium salt of L-isomer of Compound B, L-homoalanin-4-yl(methyl)phosphinic acid]: in assay [1], the inhibition at 125 g/ha is 48%, the inhibition at 250 g/ha was determined as 68% and the inhibition at 500 g/ha turned out to be 77%. Also, the Rating in assay [3] (5 g/a active ingredient) is given as 5 (50 to 59). Also, in assay [3] (10 g/a active ingredient), the Rating is 6 (60 to 69).

For `COc1cc(OC)nc(NC(=O)NS(=O)(=O)c2ncccc2C(F)(F)F)n1` [Compound A, 1-(4,6-dimethoxypyrimidin-2-yl)-3-(3-trifluoromethyl-2-pyridylsulfonyl)urea], the inhibition at 25 g/ha in assay [1] (0.25 g/a active ingredient, 25 days after foliage treatment) was 46%. The inhibition at 50 g/ha in assay [1] (0.5 g/a active ingredient, 25 days after foliage treatment) was determined as 51%. The inhibition at 100 g/ha is 63% in assay [1] (1 g/a active ingredient, 25 days after foliage treatment) and 67.3% in assay [2] (1 g/a active ingredient, 20 days after foliage treatment). In addition, the inhibition at 5 g/ha in assay [2] (0.05 g/a active ingredient, 20 days after foliage treatment) came to 0%. Further, the inhibition at 10 g/ha in assay [2] (0.1 g/a active ingredient, 20 days after foliage treatment) turned out to be 3.5%. For the same compound, the inhibition at 20 g/ha in assay [2] (0.2 g/a active ingredient, 20 days after foliage treatment) came to 5.3%. Also, the inhibition at 40 g/ha in assay [2] (0.4 g/a active ingredient, 20 days after foliage treatment) is 16.9%. Besides, in assay [2] (0.6 g/a active ingredient, 20 days after foliage treatment), the inhibition at 60 g/ha came to 47.4%. Besides, the inhibition at 500 g/ha in assay [2] (5 g/a active ingredient, 20 days after foliage treatment) was 99.4%. Besides, the results for the Rating in assay [3] (0.5 g/a active ingredient) and in assay [3] (1 g/a active ingredient) were 5 (50 to 59) and 6 (60 to 69), respectively.

Consider `C[C@H](NC(=O)[C@H](C)NC(=O)C(N)CCP(C)(=O)O)C(=O)O` (stereo partly drawn) [Sodium salt of L-isomer of Compound C, L-2-amino-4-[(hydroxy)(methyl)phosphinoyl]butyryl-L-alanyl-L-alanine], for which, in assay [1] (2.5 g/a active ingredient, 25 days after foliage treatment), the inhibition at 250 g/ha was determined as 51%. In addition, the inhibition at 500 g/ha in assay [1] (5 g/a active ingredient, 25 days after foliage treatment) was 70%. For the same compound, the inhibition at 1000 g/ha in assay [1] (10 g/a active ingredient, 25 days after foliage treatment) was 79%. Further, the Rating is on record as 5 (50 to 59) in assay [3] (5 g/a active ingredient) and 6 (60 to 69) in assay [3] (10 g/a active ingredient).
